Patent US7393872B2, “Sodium channel blocker compositions and the use thereof” (Euro-Celtique S.A., priority 1999, dated 2008)

Tests used:
[1] = tested on: Chung model of neuropathic rats; experiment: Tactile allodynia in the Chung model of peripheral neuropathy; type: in vivo, rat; details: given alone, FIG. 2
Method: Male Sprague-Dawley rats weighing between 200-225 g were anesthetized with halothane (1-3% in a mixture of 70% air and 30% oxygen) and their body temperature controlled during anesthesia through use of a homeothermic blanket. A 2-cm dorsal midline incision was then made at the L5 and L6 level and the para-vertibral muscle groups retracted bilaterally. L5 and L6 spinal nerves were then be exposed, isolated, and tightly ligated with 6-0 silk suture. A sham operation was performed exposing the contralateral L5 and L6 spinal nerves as a negative control.
Tactile Allodynia: Rats were transferred to an elevated testing cage with a wire mesh floor and allowed to acclimate for five to ten minutes. A series of Semmes-Weinstein monofilaments were applied to the plantar surface of the hindpaw to determine the animal's withdrawal threshold. […] This procedure was repeated with subsequent lesser filaments until there was no response and the lightest filament that elicited a response was recorded. […] For each animal, three measurements were made at every time point to produce an average withdrawal threshold determination. Tests were performed prior to and at 1, 2, and 24 hrs post drug administration. Tactile allodynia and mechanical hyperalgesia tests were conducted concurrently.

chronic pain = details: clinical trials; 15-20% of patients treated with placebo showed effectiveness; cited from earlier work

| SMILES | tactile antiallodynia effect (withdrawal threshold) ([1]; 1.25 mg/kg p.o.) | tactile antiallodynia effect (withdrawal threshold) ([1]; 25 mg/kg s.c.) | patient population that showed effectiveness (chronic pain) |
| --- | --- | --- | --- |
| NC(=O)NN=Cc1ccc(Oc2ccc(F)cc2)cc1 [Co 102862, 4-(4′-fluoro-phenoxy)benzaldehyde semicarbazone] | moderate antiallodynia effect |  |  |
| NCC1(CC(=O)O)CCCCC1 [gabapentin, 1-(aminomethyl)cyclohexaneacetic acid] |  | minimum or no effect | less than 50% |
